Measured values reported in US10710978B2, “STK4 inhibitors for treatment of hematologic malignancies” (Dana-Farber Cancer Institute, Inc., priority 2015, dated 2020).
Like-named read-outs stand apart in the source and are kept apart here.

Legend:
Assay in all cases: KiNativ assay
Format in all cases: binding
PI4KB = PI4KB (Homo sapiens (Human), UniProt Q9UBF8); conditions: H929 live cell
Method: (§1) Biochemical IC50s of the compounds of the present disclosure against various kinases were measured in a KiNativ assay. Compounds were screened in duplicate at 10 μM in H929 live cell. IC50 was measured via Mass spectroscopy (MS).

ABL, ARG = conditions: H929 live cell
Method: as §1

MARK3 = MARK3 (Homo sapiens (Human), UniProt P27448); conditions: H929 live cell
Method: as §1

[1] = system: RSK1 domain1, RSK2 domain1, RSK3 domain1; conditions: H929 live cell
Method: as §1

GSK3A = GSK3A (Homo sapiens (Human), UniProt P49840); conditions: H929 live cell
Method: as §1

ATR = ATR (Homo sapiens (Human), UniProt Q13535); conditions: H929 live cell, read-out: inhibition (10 μM)
Method: as §1

ILK = ILK (Homo sapiens (Human), UniProt Q13418); conditions: H929 live cell
Chain of ILK (Q13418 whole entry): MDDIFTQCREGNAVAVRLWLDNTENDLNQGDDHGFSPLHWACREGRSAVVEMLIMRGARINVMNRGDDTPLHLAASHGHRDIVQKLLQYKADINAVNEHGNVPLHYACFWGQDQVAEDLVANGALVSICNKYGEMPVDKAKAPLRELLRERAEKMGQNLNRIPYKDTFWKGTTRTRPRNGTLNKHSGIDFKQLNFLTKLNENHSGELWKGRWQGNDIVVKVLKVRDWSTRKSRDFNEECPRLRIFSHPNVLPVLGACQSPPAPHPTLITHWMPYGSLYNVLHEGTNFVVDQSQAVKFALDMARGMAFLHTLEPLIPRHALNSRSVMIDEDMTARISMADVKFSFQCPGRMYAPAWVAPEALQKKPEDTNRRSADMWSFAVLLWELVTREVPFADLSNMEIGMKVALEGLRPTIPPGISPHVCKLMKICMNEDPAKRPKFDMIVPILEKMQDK
Method: as §1

NDR1 = NDR1 (Homo sapiens (Human), UniProt Q15208); conditions: H929 live cell
Method: as §1

[2] = system: CaMK2a, CaMK2b, CaMK2d, CaMK2g; conditions: H929 live cell
Method: as §1

NEK8 = NEK8 (Homo sapiens (Human), UniProt Q86SG6); conditions: H929 live cell
Method: as §1

CaMK1d = CaMK1d (Homo sapiens (Human), UniProt Q8IU85); conditions: H929 live cell
Chain of CaMK1d (Q8IU85 whole entry): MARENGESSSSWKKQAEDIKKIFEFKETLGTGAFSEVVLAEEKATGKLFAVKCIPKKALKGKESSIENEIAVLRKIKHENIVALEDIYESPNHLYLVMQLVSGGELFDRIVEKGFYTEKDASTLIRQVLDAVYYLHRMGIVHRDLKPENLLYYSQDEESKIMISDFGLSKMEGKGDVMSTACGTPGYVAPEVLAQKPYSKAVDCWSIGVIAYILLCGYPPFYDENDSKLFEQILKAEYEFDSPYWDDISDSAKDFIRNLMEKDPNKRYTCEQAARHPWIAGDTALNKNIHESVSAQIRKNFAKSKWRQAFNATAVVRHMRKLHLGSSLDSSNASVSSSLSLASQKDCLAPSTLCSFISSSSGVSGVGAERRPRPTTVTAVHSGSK
Method: as §1

CK1a = CK1a (Homo sapiens (Human), UniProt P48729); conditions: H929 live cell
Method: as §1

CLK2 = CLK2 (Homo sapiens (Human), UniProt P49760); conditions: H929 live cell
Method: as §1

PIK3CG = PIK3CG (Homo sapiens (Human), UniProt P48736); conditions: H929 live cell
Chain of PIK3CG (P48736 whole entry): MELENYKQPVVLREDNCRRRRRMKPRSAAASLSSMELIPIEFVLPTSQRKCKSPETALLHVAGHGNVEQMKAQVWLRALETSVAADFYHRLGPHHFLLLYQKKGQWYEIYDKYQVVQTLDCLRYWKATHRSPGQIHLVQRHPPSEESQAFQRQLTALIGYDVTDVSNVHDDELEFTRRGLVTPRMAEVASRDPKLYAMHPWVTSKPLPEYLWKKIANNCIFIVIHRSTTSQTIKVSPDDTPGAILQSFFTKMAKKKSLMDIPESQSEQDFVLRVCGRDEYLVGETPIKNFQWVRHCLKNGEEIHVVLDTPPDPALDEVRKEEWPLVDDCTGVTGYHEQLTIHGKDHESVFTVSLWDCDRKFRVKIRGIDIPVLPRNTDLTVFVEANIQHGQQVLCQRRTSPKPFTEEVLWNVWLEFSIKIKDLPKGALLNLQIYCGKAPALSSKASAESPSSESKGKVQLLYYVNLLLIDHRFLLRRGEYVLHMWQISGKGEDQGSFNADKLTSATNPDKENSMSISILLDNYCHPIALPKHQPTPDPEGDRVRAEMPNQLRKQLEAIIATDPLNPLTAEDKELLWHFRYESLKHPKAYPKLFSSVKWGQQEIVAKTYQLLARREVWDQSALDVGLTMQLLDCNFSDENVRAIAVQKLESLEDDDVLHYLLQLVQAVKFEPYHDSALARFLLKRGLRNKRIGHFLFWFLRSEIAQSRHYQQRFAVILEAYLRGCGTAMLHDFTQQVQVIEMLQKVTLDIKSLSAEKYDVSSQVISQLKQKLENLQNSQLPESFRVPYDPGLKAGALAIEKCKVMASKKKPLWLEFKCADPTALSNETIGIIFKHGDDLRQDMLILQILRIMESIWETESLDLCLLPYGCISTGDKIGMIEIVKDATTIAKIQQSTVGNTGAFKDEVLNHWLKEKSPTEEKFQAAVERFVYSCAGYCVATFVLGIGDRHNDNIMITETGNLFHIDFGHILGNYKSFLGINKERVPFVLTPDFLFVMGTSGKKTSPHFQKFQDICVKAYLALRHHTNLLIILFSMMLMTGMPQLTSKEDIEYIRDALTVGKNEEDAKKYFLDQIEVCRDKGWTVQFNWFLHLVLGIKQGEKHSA
Method: as §1

Erk2 = Erk2 (Homo sapiens (Human), UniProt P28482); conditions: H929 live cell
Method: as §1

CaMK2g = CaMK2g (Homo sapiens (Human), UniProt Q13555); conditions: H929 live cell
Chain of CaMK2g (Q13555 whole entry): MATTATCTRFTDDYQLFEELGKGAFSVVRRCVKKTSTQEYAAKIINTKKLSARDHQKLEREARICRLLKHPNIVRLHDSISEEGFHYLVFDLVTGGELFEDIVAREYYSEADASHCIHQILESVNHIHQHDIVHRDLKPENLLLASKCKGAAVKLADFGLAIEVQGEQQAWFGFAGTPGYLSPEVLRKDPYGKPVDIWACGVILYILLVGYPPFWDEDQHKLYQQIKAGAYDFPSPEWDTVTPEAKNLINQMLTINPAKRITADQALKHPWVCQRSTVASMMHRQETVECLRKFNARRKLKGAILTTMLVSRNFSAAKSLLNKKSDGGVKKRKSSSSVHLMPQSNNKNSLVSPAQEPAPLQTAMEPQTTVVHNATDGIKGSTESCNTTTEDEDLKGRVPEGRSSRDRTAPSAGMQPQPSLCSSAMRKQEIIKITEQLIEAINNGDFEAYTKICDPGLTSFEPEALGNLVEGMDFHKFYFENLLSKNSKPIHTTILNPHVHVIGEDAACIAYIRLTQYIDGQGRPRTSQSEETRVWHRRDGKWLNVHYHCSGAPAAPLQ
Method: as §1

SRPK1 = SRPK1 (Homo sapiens (Human), UniProt Q96SB4); conditions: H929 live cell
Method: as §1

RSK2 domain2 = RSK2 domain2 (Homo sapiens (Human), UniProt P51812); conditions: H929 live cell
Chain of RSK2 domain2 (P51812 whole entry, the tested form may be a part): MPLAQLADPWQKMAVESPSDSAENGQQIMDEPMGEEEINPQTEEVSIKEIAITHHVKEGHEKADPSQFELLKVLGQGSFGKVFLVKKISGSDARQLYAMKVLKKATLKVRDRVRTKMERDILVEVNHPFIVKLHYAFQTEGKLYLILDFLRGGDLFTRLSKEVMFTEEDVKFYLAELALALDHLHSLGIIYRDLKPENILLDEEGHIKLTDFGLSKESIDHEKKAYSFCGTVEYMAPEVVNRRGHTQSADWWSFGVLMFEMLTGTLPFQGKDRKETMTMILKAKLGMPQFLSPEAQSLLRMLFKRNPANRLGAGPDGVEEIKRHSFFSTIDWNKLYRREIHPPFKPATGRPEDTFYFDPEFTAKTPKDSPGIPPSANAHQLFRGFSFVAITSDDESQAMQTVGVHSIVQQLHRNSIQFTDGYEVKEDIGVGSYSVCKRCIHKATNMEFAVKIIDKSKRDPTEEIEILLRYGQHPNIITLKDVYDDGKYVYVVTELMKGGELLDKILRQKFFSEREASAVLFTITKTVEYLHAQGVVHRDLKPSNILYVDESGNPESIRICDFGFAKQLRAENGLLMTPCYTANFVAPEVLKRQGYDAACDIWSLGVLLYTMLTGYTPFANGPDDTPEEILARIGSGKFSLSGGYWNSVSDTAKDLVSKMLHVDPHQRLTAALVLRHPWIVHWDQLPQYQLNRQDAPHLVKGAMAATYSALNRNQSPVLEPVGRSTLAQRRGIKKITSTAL
Method: as §1

STLK3 = STLK3 (Homo sapiens (Human), UniProt Q9UEW8); conditions: H929 live cell
Method: as §1

MAST3 = MAST3 (Homo sapiens (Human), UniProt O60307); conditions: H929 live cell
Chain of MAST3 (O60307 whole entry): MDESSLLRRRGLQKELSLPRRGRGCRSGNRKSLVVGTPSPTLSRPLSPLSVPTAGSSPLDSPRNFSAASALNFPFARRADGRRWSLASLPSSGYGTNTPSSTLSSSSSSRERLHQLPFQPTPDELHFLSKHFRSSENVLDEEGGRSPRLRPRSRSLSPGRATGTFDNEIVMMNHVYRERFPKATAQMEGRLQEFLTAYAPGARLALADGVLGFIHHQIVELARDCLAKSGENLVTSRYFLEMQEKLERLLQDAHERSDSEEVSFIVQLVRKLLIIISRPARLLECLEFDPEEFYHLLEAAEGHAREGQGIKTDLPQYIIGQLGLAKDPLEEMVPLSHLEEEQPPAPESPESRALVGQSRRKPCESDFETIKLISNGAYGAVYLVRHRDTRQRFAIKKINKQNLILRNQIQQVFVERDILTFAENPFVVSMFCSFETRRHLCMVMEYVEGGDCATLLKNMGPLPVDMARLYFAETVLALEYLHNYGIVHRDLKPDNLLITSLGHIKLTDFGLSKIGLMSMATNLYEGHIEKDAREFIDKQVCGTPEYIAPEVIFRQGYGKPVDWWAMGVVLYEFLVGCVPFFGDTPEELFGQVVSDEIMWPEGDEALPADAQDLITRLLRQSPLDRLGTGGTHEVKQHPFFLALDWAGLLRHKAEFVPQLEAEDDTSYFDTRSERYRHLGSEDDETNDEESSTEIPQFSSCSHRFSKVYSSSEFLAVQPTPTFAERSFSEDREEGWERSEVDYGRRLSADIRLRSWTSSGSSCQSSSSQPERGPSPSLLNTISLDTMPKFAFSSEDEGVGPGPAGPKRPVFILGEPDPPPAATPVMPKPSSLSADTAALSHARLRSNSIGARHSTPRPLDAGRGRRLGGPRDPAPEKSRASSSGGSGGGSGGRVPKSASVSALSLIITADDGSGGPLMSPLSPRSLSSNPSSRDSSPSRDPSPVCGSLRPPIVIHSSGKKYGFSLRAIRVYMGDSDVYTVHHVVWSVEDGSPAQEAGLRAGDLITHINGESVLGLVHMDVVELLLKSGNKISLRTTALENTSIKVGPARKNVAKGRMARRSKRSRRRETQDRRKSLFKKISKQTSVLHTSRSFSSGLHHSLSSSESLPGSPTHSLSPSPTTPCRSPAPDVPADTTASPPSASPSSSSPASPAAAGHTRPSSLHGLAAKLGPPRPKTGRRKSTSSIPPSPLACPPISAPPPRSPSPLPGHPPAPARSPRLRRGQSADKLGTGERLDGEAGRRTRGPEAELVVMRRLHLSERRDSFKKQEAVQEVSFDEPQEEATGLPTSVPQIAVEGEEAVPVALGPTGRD
Method: as §1

Erk1 = Erk1 (Homo sapiens (Human), UniProt P27361); conditions: H929 live cell
Chain of Erk1 (P27361 whole entry): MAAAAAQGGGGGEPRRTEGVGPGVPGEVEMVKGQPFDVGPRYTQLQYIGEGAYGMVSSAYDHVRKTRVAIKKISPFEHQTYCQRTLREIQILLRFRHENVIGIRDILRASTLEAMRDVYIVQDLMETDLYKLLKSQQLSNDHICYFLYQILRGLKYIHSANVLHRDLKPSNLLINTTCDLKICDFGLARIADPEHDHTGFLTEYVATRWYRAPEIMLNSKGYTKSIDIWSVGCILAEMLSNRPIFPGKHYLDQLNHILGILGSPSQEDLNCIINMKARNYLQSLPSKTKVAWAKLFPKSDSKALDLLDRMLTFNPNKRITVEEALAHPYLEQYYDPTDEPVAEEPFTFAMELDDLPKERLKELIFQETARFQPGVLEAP
Method: as §1

TAO1, TAO3 = conditions: H929 live cell
Method: as §1

CDK5 = CDK5 (Homo sapiens (Human), UniProt Q00535); conditions: H929 live cell
Method: as §1

MARK2 = MARK2 (Homo sapiens (Human), UniProt Q7KZI7); conditions: H929 live cell
Method: as §1

IKKb = IKKb (Homo sapiens (Human), UniProt O14920); conditions: H929 live cell
Method: as §1

SLK = SLK (Homo sapiens (Human), UniProt Q9H2G2); conditions: H929 live cell
Method: as §1

MAP2K6 = MAP2K6 (Homo sapiens (Human), UniProt P52564); conditions: H929 live cell
Method: as §1

MLK3 = MLK3 (Homo sapiens (Human), UniProt Q16584); conditions: H929 live cell
Method: as §1

PIK3C3 = PIK3C3 (Homo sapiens (Human), UniProt Q8NEB9); conditions: H929 live cell, read-out: inhibition (10 μM)
Method: as §1

p38d, p38g = conditions: H929 live cell
Method: as §1

NEK1 = NEK1 (Homo sapiens (Human), UniProt Q96PY6); conditions: H929 live cell
Method: as §1

IRAK4 = IRAK4 (Homo sapiens (Human), UniProt Q9NWZ3); conditions: H929 live cell
Method: as §1

CSK = CSK (Homo sapiens (Human), UniProt P41240); conditions: H929 live cell
Method: as §1

Which inhibition at 10 µM (PI4KB; read-out: % inhibition (range)) does the source give for `Nc1ncc(-c2cccc([N+](=O)[O-])c2F)cc1-c1ccc2c(c1)CCNC2=O` [Compound I-9, 6-(2-amino-5-(2-fluoro-3-nitrophenyl)pyridin-3-yl)-3,4-dihydroisoquinolin-1(2H)-one] here?
Its inhibition at 10 µM is 0%.

And the inhibition at 10 µM (PI4KB; read-out: inhibition (10 μM))?
The inhibition at 10 µM was -13.8%.

And the “% inhibition (range)” value (ABL, ARG; 10 μM)?
The value was 75-90%.

What about the “inhibition (10 μM)” value (ABL, ARG) of the same molecule?
Its value is 75.7%.

And the inhibition at 10 µM (MARK3; read-out: % inhibition (range))?
The inhibition at 10 µM was 75 to 90%.

And the inhibition at 10 µM (MARK3; read-out: inhibition (10 μM))?
Its inhibition at 10 µM is 78.3%.

What about the “% inhibition (range)” value ([1]; 10 μM) of the same molecule?
The value was 50-75%.

And the “inhibition (10 μM)” value [1]?
Its value is 58.7%.

And the inhibition at 10 µM (GSK3A; read-out: % inhibition (range))?
The inhibition at 10 µM was > 90%.

What about the inhibition at 10 µM (GSK3A; read-out: inhibition (10 μM)) of the same molecule?
The inhibition at 10 µM was 97.2%.

And the inhibition at 10 µM (ATR)?
Its inhibition at 10 µM is 37.5%.

What about the inhibition at 10 µM (ILK; read-out: % inhibition (range)) of the same molecule?
Its inhibition at 10 µM is 0%.

And the inhibition at 10 µM (ILK; read-out: inhibition (10 μM))?
Its inhibition at 10 µM is -19%.

What about the inhibition at 10 µM (NDR1; read-out: % inhibition (range)) of the same molecule?
Its inhibition at 10 µM is 0%.

What about the inhibition at 10 µM (NDR1; read-out: inhibition (10 μM)) of the same molecule?
The inhibition at 10 µM was 3.5%.

And the “% inhibition (range)” value ([2]; 10 μM)?
The value was 0.0%.

And the “inhibition (10 μM)” value [2]?
Its value is 3.3%.

What about the inhibition at 10 µM (NEK8; read-out: % inhibition (range)) of the same molecule?
The inhibition at 10 µM was 0%.

And the inhibition at 10 µM (NEK8; read-out: inhibition (10 μM))?
Its inhibition at 10 µM is 11.6%.

What about the inhibition at 10 µM (CaMK1d; read-out: % inhibition (range)) of the same molecule?
Its inhibition at 10 µM is 0%.

And the inhibition at 10 µM (CaMK1d; read-out: inhibition (10 μM))?
The inhibition at 10 µM was -2.8%.

And the inhibition at 10 µM (CK1a; read-out: % inhibition (range))?
The inhibition at 10 µM was 75 to 90%.

And the inhibition at 10 µM (CK1a; read-out: inhibition (10 μM))?
Its inhibition at 10 µM is 84.6%.

What about the inhibition at 10 µM (CLK2; read-out: % inhibition (range)) of the same molecule?
The inhibition at 10 µM was > 90%.

And the inhibition at 10 µM (CLK2; read-out:)?
The inhibition at 10 µM was > 95%.

And the inhibition at 10 µM (PIK3CG; read-out: % inhibition (range))?
The inhibition at 10 µM was 0%.

What about the inhibition at 10 µM (PIK3CG; read-out: inhibition (10 μM)) of the same molecule?
The inhibition at 10 µM was 16.3%.

And the inhibition at 10 µM (Erk2; read-out: % inhibition (range))?
Its inhibition at 10 µM is 50 to 75%.

What about the inhibition at 10 µM (Erk2; read-out: inhibition (10 μM)) of the same molecule?
The inhibition at 10 µM was 60.2%.

And the inhibition at 10 µM (CaMK2g; read-out: % inhibition (range))?
The inhibition at 10 µM was 0%.

What about the inhibition at 10 µM (CaMK2g; read-out: inhibition (10 μM)) of the same molecule?
The inhibition at 10 µM was -23%.

What about the inhibition at 10 µM (SRPK1; read-out: % inhibition (range)) of the same molecule?
The inhibition at 10 µM was 0%.

What about the inhibition at 10 µM (SRPK1; read-out: inhibition (10 μM)) of the same molecule?
Its inhibition at 10 µM is 32.8%.

What about the inhibition at 10 µM (RSK2 domain2; read-out: % inhibition (range)) of the same molecule?
Its inhibition at 10 µM is 0%.

What about the inhibition at 10 µM (RSK2 domain2; read-out: inhibition (10 μM)) of the same molecule?
Its inhibition at 10 µM is -23.2%.

And the inhibition at 10 µM (STLK3; read-out: % inhibition (range))?
The inhibition at 10 µM was 0%.

And the inhibition at 10 µM (STLK3; read-out: inhibition (10 μM))?
Its inhibition at 10 µM is -22.9%.

And the inhibition at 10 µM (MAST3; read-out: % inhibition (range))?
The inhibition at 10 µM was 0%.

And the inhibition at 10 µM (MAST3; read-out: inhibition (10 μM))?
The inhibition at 10 µM was 31.2%.

And the inhibition at 10 µM (Erk1; read-out: % inhibition (range))?
The inhibition at 10 µM was 50 to 75%.

And the inhibition at 10 µM (Erk1; read-out: inhibition (10 μM))?
Its inhibition at 10 µM is 50.5%.

What about the “% inhibition (range)” value (TAO1, TAO3; 10 μM) of the same molecule?
The value was 50-75%.

What about the “inhibition (10 μM)” value (TAO1, TAO3) of the same molecule?
Its value is 67.5%.

What about the inhibition at 10 µM (CDK5; read-out: % inhibition (range)) of the same molecule?
The inhibition at 10 µM was 75 to 90%.

And the inhibition at 10 µM (CDK5; read-out: inhibition (10 μM))?
Its inhibition at 10 µM is 78.7%.

What about the inhibition at 10 µM (MARK2; read-out: % inhibition (range)) of the same molecule?
The inhibition at 10 µM was 50 to 75%.

And the inhibition at 10 µM (MARK2; read-out: inhibition (10 μM))?
The inhibition at 10 µM was 63.5%.

And the inhibition at 10 µM (IKKb; read-out: % inhibition (range))?
The inhibition at 10 µM was 0%.

And the inhibition at 10 µM (IKKb; read-out: inhibition (10 μM))?
Its inhibition at 10 µM is -15%.

And the inhibition at 10 µM (SLK; read-out: % inhibition (range))?
The inhibition at 10 µM was > 90%.

What about the inhibition at 10 µM (SLK; read-out: inhibition (10 μM)) of the same molecule?
Its inhibition at 10 µM is 95.3%.

And the inhibition at 10 µM (MAP2K6; read-out: % inhibition (range))?
Its inhibition at 10 µM is 0%.

What about the inhibition at 10 µM (MAP2K6; read-out: inhibition (10 μM)) of the same molecule?
The inhibition at 10 µM was 6.8%.

What about the inhibition at 10 µM (MLK3; read-out: % inhibition (range)) of the same molecule?
The inhibition at 10 µM was 50 to 75%.

What about the inhibition at 10 µM (MLK3; read-out: inhibition (10 μM)) of the same molecule?
Its inhibition at 10 µM is 62.9%.

What about the inhibition at 10 µM (PIK3C3) of the same molecule?
The inhibition at 10 µM was 51.2%.

What about the “% inhibition (range)” value (p38d, p38g; 10 μM) of the same molecule?
Its value is 0.0%.

And the “inhibition (10 μM)” value (p38d, p38g)?
Its value is −11.0%.

And the inhibition at 10 µM (NEK1; read-out: % inhibition (range))?
Its inhibition at 10 µM is 0%.

And the inhibition at 10 µM (NEK1; read-out: inhibition (10 μM))?
Its inhibition at 10 µM is -34%.

What about the inhibition at 10 µM (IRAK4; read-out: % inhibition (range)) of the same molecule?
Its inhibition at 10 µM is 0%.

What about the inhibition at 10 µM (IRAK4; read-out: inhibition (10 μM)) of the same molecule?
The inhibition at 10 µM was -14.1%.

What about the inhibition at 10 µM (CSK; read-out: % inhibition (range)) of the same molecule?
Its inhibition at 10 µM is 0%.

And the inhibition at 10 µM (CSK; read-out: inhibition (10 μM))?
Its inhibition at 10 µM is -4.5%.
